# Source: patent publication US10076519B2 (CYTOKINETICS, INC., priority 2010, dated 2018)
# System: rabbit skeletal myofibrils (fast skeletal myofibrils)
# Assay: Activation of fast skeletal myofibrils (PUMA assay, PK/LDH-coupled ATPase at pCa25)
# Assay type: biochemical
# Conditions: AC1.4 determined according to the procedure of Example 39; reported as class symbols
# In short: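 ATPase activity of Triton-washed rabbit skeletal myofibrils, roughly 90% fast fibres, tracked by NADH loss at 340 nm through a PK/LDH-coupled ADP-regenerating system. Calcium set to 25% of maximal activity (pCa25), in PIPES 12 mM pH 6.8 with 2 mM MgCl2 and 1 mM DTT; AC1.4 reported.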
row,Structure (SMILES),Mean AC1.4
1,CC(C)(CNc1ccc(-c2cccc(CN)c2)nn1)c1ccc(F)cc1 [{6-[3-(aminomethyl)phenyl]pyridazin-3-yl}[2-(4-fluorophenyl)-2-methylpropyl]amine],B (B=1-10 uM)
2,CCNc1n[nH]c2ccc(-c3ccc(NCC(C)(C)c4ccc(F)cc4)nn3)cc12 [{6-[3-(ethylamino)(1H-indazol-5-yl)]pyridazin-3-yl}[2-(4-fluorophenyl)-2-methylpropyl]amine],A (A=<1 uM)
3,CCNc1n[nH]c2ccc(-c3ccc(NCC4(c5ccccn5)CCC4)nn3)cc12 [{6-[3-(ethylamino)(1H-indazol-5-yl)]pyridazin-3-yl}[(2-pyridylcyclobutyl)methyl]amine],A (A=<1 uM)
4,CCNc1n[nH]c2ccc(-c3ccc(NCC4(c5ncccc5F)CCC4)nn3)cc12 [{6-[3-(ethylamino)(1H-indazol-5-yl)]pyridazin-3-yl}{[(3-fluoro(2-pyridyl))cyclobutyl]methyl}amine],A (A=<1 uM)

# Same assay, conditions: median AC1.4 class, procedure of Example 39
row,Structure (SMILES),Mean AC1.4
1,"NCCn1nnc(-c2ccc(NCC3(c4ncccc4F)CCC3)nn2)n1 [{6-[2-(2-aminoethyl)(1,2,3,4-tetraazol-5-yl)]pyridazin-3-yl}{[(3-fluoro(2-pyridyl))cyclobutyl]methyl}amine]",D (D=>20 uM)
2,NCc1ccc(F)cc1-c1ccc(NCC2(c3ncccc3F)CCC2)nn1 [{6-[2-(aminomethyl)-5-fluorophenyl]pyridazin-3-yl} {[(3-fluoro(2-pyridyl))cyclobutyl]methyl}amine],C (C=10-20 uM)
3,NCc1ccccc1-c1ccc(NCC2(c3ncccc3F)CCC2)nn1 [{6-[2-(aminomethyl)phenyl]pyridazin-3-yl}{[(3-fluoro(2-pyridyl))cyclobutyl]methyl}amine],D (D=>20 uM)
4,NCc1ccc(-c2ccc(NCC3(c4ncccc4F)CCC3)nn2)cc1 [{6-[4-(aminomethyl)phenyl]pyridazin-3-yl}{[(3-fluoro(2-pyridyl))cyclobutyl]methyl}amine],B (B=1-10 uM)
5,"NC(c1cnc(-c2ccc(NCC3(c4ncccc4F)CCC3)nn2)s1)C(F)(F)F (stereo not drawn) [{6-[5-(1-amino-2,2,2-trifluoroethyl)(1,3-thiazol-2-yl)]pyridazin-3-yl}{[(3-fluoro(2-pyridyl))cyclobutyl]methyl}amine]",B (B=1-10 uM)
6,"NC1(c2cnc(-c3ccc(NCC4(c5ncccc5F)CCC4)nn3)s2)COC1 [{6-[5-(3-aminooxetan-3-yl)(1,3-thiazol-2-yl)]pyridazin-3-yl}{[(3-fluoro(2-pyridyl))cyclobutyl]methyl}amine]",D (D=>20 uM)
7,"NCc1cnc(-c2ccc(NCC3(c4ncccc4F)CCC3)nn2)s1 [{6-[5-(aminomethyl)(1,3-thiazol-2-yl)]pyridazin-3-yl}{[(3-fluoro(2-pyridyl))cyclobutyl]methyl}amine]",B (B=1-10 uM)

# Same assay, conditions: median AC1.4 reported as class; procedure of Example 39
row,Structure (SMILES),Mean AC1.4
1,"CN(C)C(=O)c1cc(-c2ccc(NC[C@]3(c4ncccc4F)C[C@H](F)C3)nn2)ccc1O [{5-[6-({[3-fluoro-1-(3-fluoro(2-pyridyl))cyclobutyl]methyl}ami-no)pyridazin-3-yl]-2-hydroxyphenyl}-N,N-dimethylcarboxamide]",B (B=1-10 uM)
2,CNC(=O)c1cc(-c2ccc(NC[C@]3(c4ncccc4F)C[C@H](F)C3)nn2)ccc1O [{5-[6-({[3-fluoro-1-(3-fluoro(2-pyridyl))cyclobutyl]methyl}ami-no)pyridazin-3-yl]-2-hydroxyphenyl}-N-methylcarboxamide],B (B=1-10 uM)
3,CNC(=O)c1cc2cc(-c3ccc(NC[C@]4(c5ncccc5F)C[C@H](F)C4)nn3)ccc2[nH]1 [{5-[6-({[3-fluoro-1-(3-fluoro(2-pyridyl))cyclobutyl]methyl}ami-no)pyridazin-3-yl]indol-2-yl}-N-methylcarboxamide],A (A=<1 uM)
4,CNC(=O)c1ccc(-c2ccc(NCC3(c4ncccc4F)CCC3)nn2)s1 [{5-[6-({[(3-fluoro(2-pyridyl))cyclobutyl]methyl}ami-no)pyridazin-3-yl](2-thienyl)}-N-methylcarboxamide],B (B=1-10 uM)
